Results taken from patent US12194082B2, “Compositions and methods for treatment of homocystinuria” (THE REGENTS OF THE UNIVERSITY OF COLORADO, priority 2016, dated 2025).

Tests used:
[1] = test system: homocysteine, cystathionine, cysteine, lanthionine, and homolanthionine; assay: Pharmacodynamics (plasma sulfur amino acid metabolites) in monkeys; type: in vivo, cynomolgus monkeys (Macaca fascicularis); parameters: Cystathionine plasma level / Lanthionine plasma level / Homolanthionine plasma level: unit not given here; settings: for Homolanthionine plasma level / Lanthionine plasma level / Cystathionine plasma level: mean ± SEM
Method: (§1) Plasma metabolites homocysteine, cystathionine and cysteine were determined by stable-isotope-dilution liquid chromatography mass spectrometry as previously described in (Allen et al., 1993, Metabolism, 42: 1448-1460). Measurements of total non-protein bound homocysteine and other aminothiols as well as of amino acids in tissue were performed as described in (Maclean et al., 2010b. Mol. Genet. Metab. 101, 153-162). Metabolites were determined by stable-isotope-dilution liquid chromatography mass spectrometry.

KO mice = assay: Liver light and electron microscopy of treated KO mice; type: in vivo, mouse; settings: 7.5 mg/kg SC 3x/week from 2 days of age, day 17-19
Method: The PBS-injected or PEGylated htCBS conjugate, such as 20NHS PEG-htCBS C15S, treated KO mice were sacrificed on day 17-19 and liver samples were processed for histological analysis by optical microscopy. The histological assessment was carried out in a blinded fashion. Livers were removed and were fixed for 24 hours with 4% paraformaldehyde in PBS (pH 7.4). Tissue blocks for histology were trimmed, dehydrated with an ethanol series followed by acetone, acetone-xylene mixture, and xylene, then embedded in paraffin. In parallel, small tissue blocks (around 4 mm×2 mm) fixed with paraformaldehyde were rapidly frozen in petrol ether cooled with dry ice, and stored at −50° C. for detection of apolar lipids. Paraffin sections 4 μm thick were deparaffinized in xylene and after isopropyl alcohol step rehydrated with ethanol (96%, 70%, 60%). Tissue sections were stained with hematoxylin and eosin (H&E) to evaluate histopathological changes. Masson trichrome staining was performed for detection of fibrosis. Steatosis was verified using Oil Red O staining for detection of apolar lipids in fixed-frozen sections that was 10 μm thick and cut with a Leica Cryomicrotome (CM 1850). The sections were viewed and photographed with a Nikon light microscope (E800) equipped with Olympus digital camera (DP70). […]

Hcy, Cth, Cys = assay: Plasma metabolites in KO mice of the DEXA study; type: in vivo
Method: In 20NHS PEG-htCBS C15S-treated KO mice, the plasma levels of Hcy, Cth, and Cys were measured biweekly over the course of the study and are shown in FIG. 16F. […] The level of Cys (top line) normalized with the treatment from less than 100 μM at day […] to about 200 μM at day 45 and sustained over the course of the study. The level of Cth (bottom line) oscillated around 50 μM throughout the duration of the study.
Plasma metabolites were determined using the same mice/groups as described above. The end-point levels of metabolites Hcy, Cth, Cys, and Met were determined 24 hours after the last injection to the 20NHS PEG-htCBS C15S-treated KO mice (right bar for each metabolite) and compared with untreated healthy +/− (left bar) and affected −/− KO mice (middle bar), as shown in FIG. 16G. Table 20 provides the P-values used to determine significance for the differences in metabolite levels in the treated group compared to the two control groups.

Hcy, Cys, Cth, and Met = assay: Metabolite levels in plasma and tissues of KO mice at 18-19 days of age; type: in vivo
Method: as §1
Plasma and tissue metabolites were measured in the groups of wild-type mice (control), untreated homozygous −/− affected KO mice, and 400MA PEG-htCBS C15S-treated KO mice. The treated group was administered subcutaneous injections of 400MA PEG-htCBS C15S 3 times per week at a dose of 7.5 mg/kg from the age of 2 days. Plasma and tissues were harvested 24 hours after the last injection.

[2] = 7.5 mg/kg SC 3x/week from day 2, 24 hours after last injection, mean ± SEM
[3] = 7.5 mg/kg SC 3x/week from day 2, mean ± SEM

20NHS PEG-htCBS C15S: htCBS C15S PEGylated with ME-200GS PEG (20 kDa linear NHS ester-activated PEG)
Homolanthionine plasma level ([1]; 1 mg/kg SC every 72 h, 176 h): 64 ± 7 | Lanthionine plasma level ([1]; 1 mg/kg SC every 72 h, 176 h): 46 ± 9 | Cystathionine plasma level ([1]; 1 mg/kg SC every 72 h, 176 h after first injection): 4010 ± 236 | Cystathionine plasma level ([1]; 1 mg/kg SC every 72 h, 392 h): 4272 ± 333 | Homolanthionine plasma level ([1]; 1 mg/kg SC every 72 h, 392 h): 72 ± 5 | Lanthionine plasma level ([1]; 1 mg/kg SC every 72 h, 392 h): 69 ± 7 | Cystathionine plasma level ([1]; 3 mg/kg SC every 72 h, 176 h): 5629 ± 284 | Homolanthionine plasma level ([1]; 3 mg/kg SC every 72 h, 176 h): 64 ± 4 | Lanthionine plasma level ([1]; 3 mg/kg SC every 72 h, 176 h): 103 ± 7 | Cystathionine plasma level ([1]; 3 mg/kg SC every 72 h, 392 h): 5893 ± 390 | Homolanthionine plasma level ([1]; 3 mg/kg SC every 72 h, 392 h): 60 ± 10 | Lanthionine plasma level ([1]; 3 mg/kg SC every 72 h, 392 h): 109 ± 9 | Cystathionine plasma level ([1]; 10 mg/kg SC every 72 h, 176 h): 7098 ± 12 | Homolanthionine plasma level ([1]; 10 mg/kg SC every 72 h, 176 h): 50 ± 3 | Lanthionine plasma level ([1]; 10 mg/kg SC every 72 h, 176 h): 281 ± 43 | Cystathionine plasma level ([1]; 10 mg/kg SC every 72 h, 392 h): 9318 ± 288 | Homolanthionine plasma level ([1]; 10 mg/kg SC every 72 h, 392 h): 53 ± 4 | Lanthionine plasma level ([1]; 10 mg/kg SC every 72 h, 392 h): 353 ± 38 | plasma Cth ([1]; 8 hours after IV, 8 and 48 hours after SC administration): significant spikes | plasma levels of Hcy and Cys ([1]; single IV or SC dose, healthy wild-type monkeys): No significant changes | liver parenchyma, light microscopy (KO mice): regular liver architecture and minimal anizokaryosis | plasma Hcy (Hcy, Cth, Cys; during treatment, from about 180 μM): about 90 μM | plasma Cys (Hcy, Cth, Cys; during treatment, from less than 100 μM): about 200 μM | plasma Cth (Hcy, Cth, Cys; throughout the study): around 50 μM | Cystathionine in plasma (Hcy, Cys, Cth, and Met; [2]): 133.2 ± 9.1 µM | Cysteine in plasma (Hcy, Cys, Cth, and Met; [2]): 211.7 ± 11.5 µM | Homocysteine in plasma (Hcy, Cys, Cth, and Met; [2]): 52.8 ± 6.8 µM | Methionine in plasma (Hcy, Cys, Cth, and Met; [2]): 99.2 ± 5.4 µM | Cystathionine in brain tissue (Hcy, Cys, Cth, and Met; [3]): 8.5 ± 1.1 nmols/g | Cystathionine in kidney tissue (Hcy, Cys, Cth, and Met; [3]): 256.0 ± 77.5 nmols/g | Cystathionine in liver tissue (Hcy, Cys, Cth, and Met; [3]): 18.9 ± 1.8 nmols/g | Cysteine in brain tissue (Hcy, Cys, Cth, and Met; [3]): 56.8 ± 3.0 nmols/g | Cysteine in kidney tissue (Hcy, Cys, Cth, and Met; [3]): 282.8 ± 17.1 nmols/g | Cysteine in liver tissue (Hcy, Cys, Cth, and Met; [3]): 205.2 ± 27.4 nmols/g | Homocysteine in brain tissue (Hcy, Cys, Cth, and Met; [3]): 1.1 ± 0.1 nmols/g | Homocysteine in kidney tissue (Hcy, Cys, Cth, and Met; [3]): 6.76 ± 4.42 nmols/g | Homocysteine in liver tissue (Hcy, Cys, Cth, and Met; [3]): 22.4 ± 3.4 nmols/g | Methionine in brain tissue (Hcy, Cys, Cth, and Met; [3]): 68.6 ± 4.7 nmols/g | Methionine in kidney tissue (Hcy, Cys, Cth, and Met; [3]): 53.3 ± 2.9 nmols/g | Methionine in liver tissue (Hcy, Cys, Cth, and Met; [3]): 25.5 ± 3.4 nmols/g
